In brackets after ≈: the same amount, converted by molar mass.
Legend:
A. baumannii = assay: microbe, parasite or virus in culture; conditions: for RO7223280 MIC 80%: read at 80%; for RO7223280 MIC 100%: read at 100%
Summary of the method: (§1)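 MIC read by eye as the lowest concentration preventing growth, or as the concentration past which OD600 no longer dropped. Testing used broth microdilution per CLSI M07 and M100, with a 0.5 McFarland suspension diluted in CAMHB.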

[1] = tested on: K. pneumoniae ATCC 700603; assay: microbe, parasite or virus in culture; conditions: for RO7223280 MIC 100%: K. pneumoniae ATCC 700603, read at 100%
Summary of the method: as §1

[2] = A. baumannii ATCC 17978, Study LGC308175
[3] = A. baumannii ATCC 19606, Study LGC296813
[4] = A. baumannii ATCC 19606, Study LGC299544
[5] = A. baumannii ATCC 19606, Study LGC308175
[6] = A. baumannii ROB08701, Study LGC296813
[7] = A. baumannii ROB08701, Study LGC299544
[8] = A. baumannii ROB08701, Study LGC308175
[9] = A. baumannii ROB08702, Study LGC296813
[10] = A. baumannii ROB08702, Study LGC299544
[11] = A. baumannii ROB08702, Study LGC308175
[12] = A. baumannii ROB08703, Study LGC296813
[13] = A. baumannii ROB08703, Study LGC299544
[14] = A. baumannii ROB08703, Study LGC308175
[15] = A. baumannii ROB08704, Study LGC296813
[16] = A. baumannii ROB08704, Study LGC299544
[17] = A. baumannii ROB08704, Study LGC308175
[18] = A. baumannii ROB08705, Study LGC296813
[19] = A. baumannii ROB08705, Study LGC299544
[20] = A. baumannii ROB08705, Study LGC308175
[21] = A. baumannii ROB08706, Study LGC296813
[22] = A. baumannii ROB08706, Study LGC299544
[23] = A. baumannii ROB08706, Study LGC308175
[24] = A. baumannii ROB08707, Study LGC296813
[25] = A. baumannii ROB08707, Study LGC299544
[26] = A. baumannii ROB08707, Study LGC308175
[27] = A. baumannii ROB08708, Study LGC296813
[28] = A. baumannii ROB08708, Study LGC299544
[29] = A. baumannii ROB08708, Study LGC308175
[30] = A. baumannii ROB08709, Study LGC296813
[31] = A. baumannii ROB08709, Study LGC299544
[32] = A. baumannii ROB08709, Study LGC308175
[33] = A. baumannii ROB08710, Study LGC296813
[34] = A. baumannii ROB08710, Study LGC299544
[35] = A. baumannii ROB08710, Study LGC308175

For `CN1C(=O)[C@H](CCCCN)NC(=O)[C@H](CCCN)NCc2cccnc2Sc2cccc(-c3ccc(C(=O)O)cc3)c2CNC(=O)[C@@H]1Cc1c[nH]c2ccccc12` [zosurabalpin], the MIC range (A. baumannii; 10 MDR isolates, CAMHB, MCPs read at 80% growth inhibition) was 0.12 to 1 µg/mL, the “RO7223280 MIC 80%” value (A. baumannii; [2]) was at most 0.06 µg/mL and the “RO7223280 MIC 100%” value (A. baumannii; [2]) was 0.12 µg/mL. For the same compound, the “RO7223280 MIC 80%” value (A. baumannii; [3]) was 0.25 µg/mL, the “RO7223280 MIC 100%” value (A. baumannii; [3]) was 0.25 µg/mL and the “RO7223280 MIC 80%” value (A. baumannii; [4]) was 0.25 µg/mL. For the same compound, the “RO7223280 MIC 100%” value (A. baumannii; [4]) was 0.25 µg/mL, the “RO7223280 MIC 80%” value (A. baumannii; [5]) was 0.25 µg/mL and the “RO7223280 MIC 100%” value (A. baumannii; [5]) was 0.25 µg/mL. For the same compound, the “RO7223280 MIC 80%” value (A. baumannii; [6]) was 0.25 µg/mL, the “RO7223280 MIC 100%” value (A. baumannii; [6]) was 0.25 µg/mL and the “RO7223280 MIC 80%” value (A. baumannii; [7]) was 0.12 µg/mL. For the same compound, the “RO7223280 MIC 100%” value (A. baumannii; [7]) was 0.5 µg/mL, the “RO7223280 MIC 80%” value (A. baumannii; [8]) was 0.25 µg/mL and the “RO7223280 MIC 100%” value (A. baumannii; [8]) was 0.25 µg/mL. For the same compound, the “RO7223280 MIC 80%” value (A. baumannii; [9]) was 0.25 µg/mL, the “RO7223280 MIC 100%” value (A. baumannii; [9]) was 0.25 µg/mL and the “RO7223280 MIC 80%” value (A. baumannii; [10]) was 0.25 µg/mL. The “RO7223280 MIC 100%” value (A. baumannii; [10]) was over 64 µg/mL, the “RO7223280 MIC 80%” value (A. baumannii; [11]) was 0.25 µg/mL and the “RO7223280 MIC 100%” value (A. baumannii; [11]) was over 64 µg/mL. For the same compound, the “RO7223280 MIC 80%” value (A. baumannii; [12]) was 0.25 µg/mL, the “RO7223280 MIC 100%” value (A. baumannii; [12]) was 0.5 µg/mL and the “RO7223280 MIC 80%” value (A. baumannii; [13]) was 0.25 µg/mL. The “RO7223280 MIC 100%” value (A. baumannii; [13]) was 0.5 µg/mL, the “RO7223280 MIC 80%” value (A. baumannii; [14]) was 0.5 µg/mL and the “RO7223280 MIC 100%” value (A. baumannii; [14]) was 0.5 µg/mL. The “RO7223280 MIC 80%” value (A. baumannii; [15]) was 0.25 µg/mL, the “RO7223280 MIC 100%” value (A. baumannii; [15]) was 0.5 µg/mL and the “RO7223280 MIC 80%” value (A. baumannii; [16]) was 0.25 µg/mL. For the same compound, the “RO7223280 MIC 100%” value (A. baumannii; [16]) was 1 µg/mL, the “RO7223280 MIC 80%” value (A. baumannii; [17]) was 0.5 µg/mL and the “RO7223280 MIC 100%” value (A. baumannii; [17]) was 0.5 µg/mL. For the same compound, the “RO7223280 MIC 80%” value (A. baumannii; [18]) was 0.25 µg/mL, the “RO7223280 MIC 100%” value (A. baumannii; [18]) was 0.25 µg/mL and the “RO7223280 MIC 80%” value (A. baumannii; [19]) was 0.12 µg/mL. For the same compound, the “RO7223280 MIC 100%” value (A. baumannii; [19]) was 0.12 µg/mL, the “RO7223280 MIC 80%” value (A. baumannii; [20]) was at most 0.06 µg/mL and the “RO7223280 MIC 100%” value (A. baumannii; [20]) was 0.12 µg/mL. For the same compound, the “RO7223280 MIC 80%” value (A. baumannii; [21]) was 1 µg/mL, the “RO7223280 MIC 100%” value (A. baumannii; [21]) was 1 µg/mL and the “RO7223280 MIC 80%” value (A. baumannii; [22]) was 1 µg/mL. The “RO7223280 MIC 100%” value (A. baumannii; [22]) was over 64 µg/mL, the “RO7223280 MIC 80%” value (A. baumannii; [23]) was 2 µg/mL and the “RO7223280 MIC 100%” value (A. baumannii; [23]) was over 64 µg/mL. The “RO7223280 MIC 80%” value (A. baumannii; [24]) was 0.25 µg/mL, the “RO7223280 MIC 100%” value (A. baumannii; [24]) was 0.25 µg/mL and the “RO7223280 MIC 80%” value (A. baumannii; [25]) was 0.12 µg/mL. The “RO7223280 MIC 100%” value (A. baumannii; [25]) was 0.12 µg/mL, the “RO7223280 MIC 80%” value (A. baumannii; [26]) was 0.12 µg/mL and the “RO7223280 MIC 100%” value (A. baumannii; [26]) was 0.12 µg/mL. The “RO7223280 MIC 80%” value (A. baumannii; [27]) was 0.25 µg/mL, the “RO7223280 MIC 100%” value (A. baumannii; [27]) was 0.25 µg/mL and the “RO7223280 MIC 80%” value (A. baumannii; [28]) was 0.12 µg/mL. For the same compound, the “RO7223280 MIC 100%” value (A. baumannii; [28]) was over 64 µg/mL, the “RO7223280 MIC 80%” value (A. baumannii; [29]) was 0.12 µg/mL and the “RO7223280 MIC 100%” value (A. baumannii; [29]) was over 64 µg/mL. For the same compound, the “RO7223280 MIC 80%” value (A. baumannii; [30]) was 0.25 µg/mL, the “RO7223280 MIC 100%” value (A. baumannii; [30]) was 0.25 µg/mL and the “RO7223280 MIC 80%” value (A. baumannii; [31]) was 0.25 µg/mL. The “RO7223280 MIC 100%” value (A. baumannii; [31]) was over 64 µg/mL, the “RO7223280 MIC 80%” value (A. baumannii; [32]) was 0.25 µg/mL and the “RO7223280 MIC 100%” value (A. baumannii; [32]) was over 64 µg/mL. The “RO7223280 MIC 80%” value (A. baumannii; [33]) was 0.25 µg/mL, the “RO7223280 MIC 100%” value (A. baumannii; [33]) was over 64 µg/mL and the “RO7223280 MIC 80%” value (A. baumannii; [34]) was 0.25 µg/mL. The “RO7223280 MIC 100%” value (A. baumannii; [34]) was over 64 µg/mL, the “RO7223280 MIC 80%” value (A. baumannii; [35]) was 0.25 µg/mL and the “RO7223280 MIC 100%” value (A. baumannii; [35]) was over 64 µg/mL. The MIC90 (A. baumannii; Acinetobacter baumannii, 10 MDR isolates, CAMHB, MCPs read at 80% growth inhibition) was 0.25 µg/mL (≈ 0.316 µM), the MIC (A. baumannii; Acinetobacter baumannii, ACC00445, CAMHB, MCPs read at 80% inhibition) was 0.12 µg/mL (≈ 0.152 µM) and the MIC (A. baumannii; Acinetobacter baumannii, ACC00535, CAMHB, MCPs read at 80% inhibition) was 0.12 µg/mL (≈ 0.152 µM). The MIC (A. baumannii; Acinetobacter baumannii, ACC01073, CAMHB, MCPs read at 80% inhibition) was 1 µg/mL (≈ 1.26 µM), the MIC (A. baumannii; Acinetobacter baumannii, ACC01077, CAMHB, MCPs read at 80% inhibition) was 0.12 µg/mL (≈ 0.152 µM) and the MIC (A. baumannii; Acinetobacter baumannii, ACC01085 / AR0307, CAMHB, MCPs read at 80% inhibition) was 0.5 µg/mL (≈ 0.632 µM). For the same compound, the MIC (A. baumannii; Acinetobacter baumannii, ATCC17978, ATCC 17978, CAMHB, MCPs read at 80% inhibition) was at most 0.06 µg/mL, the MIC (A. baumannii; Acinetobacter baumannii, ATCC17978, ATCC 17978, CAMHB, one replicate, MCPs read at 80% growth inhibition) was at most 0.06 µg/mL and the MIC (A. baumannii; Acinetobacter baumannii, ATCC19606, ATCC 19606, CAMHB, MCPs read at 80% growth inhibition) was 0.25 µg/mL (≈ 0.316 µM). It also gave an MIC (A. baumannii; Acinetobacter baumannii, ATCC19606, ATCC 19606, CAMHB, MCPs read at 80% inhibition) of 0.12 µg/mL (≈ 0.152 µM), an MIC (A. baumannii; Acinetobacter baumannii, ATCCBAA747, ATCC BAA-747, CAMHB, MCPs read at 80% inhibition) of at most 0.06 µg/mL and an MIC (A. baumannii; Acinetobacter baumannii, ROB08701, CAMHB, MCPs read at 80% inhibition) of 0.25 µg/mL (≈ 0.316 µM). For the same compound, the MIC (A. baumannii; Acinetobacter baumannii, ROB08702, CAMHB, MCPs read at 80% inhibition) was 0.12 µg/mL (≈ 0.152 µM), the MIC (A. baumannii; Acinetobacter baumannii, ROB08703, CAMHB, MCPs read at 80% inhibition) was 0.5 µg/mL (≈ 0.632 µM) and the MIC (A. baumannii; Acinetobacter baumannii, ROB08704, CAMHB, MCPs read at 80% inhibition) was 0.25 µg/mL (≈ 0.316 µM). It also gave an MIC (A. baumannii; Acinetobacter baumannii, ROB08705, CAMHB, MCPs read at 80% inhibition) of 0.25 µg/mL (≈ 0.316 µM), an MIC (A. baumannii; Acinetobacter baumannii, ROB08706, CAMHB, MCPs read at 80% inhibition) of 0.5 µg/mL (≈ 0.632 µM) and an MIC (A. baumannii; Acinetobacter baumannii, ROB08707, CAMHB, MCPs read at 80% inhibition) of at most 0.06 µg/mL. For the same compound, the MIC (A. baumannii; Acinetobacter baumannii, ROB08708, CAMHB, MCPs read at 80% inhibition) was 0.12 µg/mL (≈ 0.152 µM), the MIC (A. baumannii; Acinetobacter baumannii, ROB08709, CAMHB, MCPs read at 80% inhibition) was at most 0.06 µg/mL and the MIC (A. baumannii; Acinetobacter baumannii, ROB08710, CAMHB, MCPs read at 80% inhibition) was 0.12 µg/mL (≈ 0.152 µM). The “RO7223280 MIC 100%” value ([1]; Study LGC296813) was over 64 µg/mL, the “RO7223280 MIC 100%” value ([1]; Study LGC299544) was over 64 µg/mL and the “RO7223280 MIC 100%” value ([1]; Study LGC308175) was over 64 µg/mL. For the same compound, the MIC ([1]; Klebsiella pneumoniae, ATCC700603) was over 64 µg/mL.

— PMC10794144, “A novel antibiotic class targeting the lipopolysaccharide transporter” (Nature, 2024)
